From patent US7932262B2 (Novartis AG, priority 2006, dated 2011)

What was measured:
PDK1 kinase = target: T1, PDK1 kinase (Homo sapiens, UniProt O15530); assay: PDK1 Kinase Alpha Screen Assay; assay type: biochemical; conditions: PDK1 Kinase Alpha Screen Assay; read-out: PDK1 IC50
T1 sequence (O15530 1-556): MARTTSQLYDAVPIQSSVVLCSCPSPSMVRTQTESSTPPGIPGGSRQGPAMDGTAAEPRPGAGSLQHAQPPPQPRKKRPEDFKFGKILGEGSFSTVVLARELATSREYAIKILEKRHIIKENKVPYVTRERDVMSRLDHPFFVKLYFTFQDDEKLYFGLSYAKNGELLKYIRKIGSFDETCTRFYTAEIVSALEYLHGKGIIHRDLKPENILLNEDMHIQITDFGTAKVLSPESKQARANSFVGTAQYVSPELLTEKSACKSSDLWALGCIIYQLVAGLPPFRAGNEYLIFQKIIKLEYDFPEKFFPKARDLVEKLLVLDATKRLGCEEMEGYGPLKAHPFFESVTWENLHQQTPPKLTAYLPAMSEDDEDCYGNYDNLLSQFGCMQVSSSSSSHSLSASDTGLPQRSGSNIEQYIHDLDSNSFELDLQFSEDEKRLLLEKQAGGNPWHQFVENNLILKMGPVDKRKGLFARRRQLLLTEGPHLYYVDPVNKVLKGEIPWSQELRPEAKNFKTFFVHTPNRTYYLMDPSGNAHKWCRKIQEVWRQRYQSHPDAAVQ
Method in brief: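 Kinase inhibition measured as loss of AlphaScreen signal from antibody recognition of phosphorylated biotin-PDK1-4 peptide. Reactions contain 10 uM ATP and 50 nM peptide, run 3-18 hours before EDTA quench and overnight bead development at room temperature.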

PC3MM cells = assay: Cell Proliferation Assay (Cell Titer Glo), PC3MM; assay type: cell-based; conditions: cell proliferation, PC3MM cells; read-out: CPEC50 PC3MM
Method: IV. Cell Proliferation Assay Protocol:
A2780, PC-3, or PC3MM cells were seeded at 1000 cells/well in 100 μL/well (10.000 cells/mL) growth media in 96-well plates. Cells were allowed to adhere to the bottom of plates for 3-5 hours in a 37° C. 5% CO2 incubator. Compounds were dissolved in DMSO and then transferred to the cell plates. The cells were incubated with the compounds for 3 days in a 37° C. 5% CO2 incubator. The growth medium containing the compounds was then removed from the cells and fresh medium was added, followed by 100 μL of Cell Titer Glo assay reagent (Promega). This mixture was shaken for 1 minute and then incubated without shaking for 10 minutes. Activity determinations for the compounds were made by detection on a Trilux Instrument.

A2780 cells = assay: Cell Proliferation Assay (Cell Titer Glo), A2780; assay type: cell-based; conditions: Homo sapiens; cell proliferation, A2780 cells; read-out: CPEC50 A2780
Method in brief: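 Following a 3-day compound exposure (37° C., 5% CO2) of A2780 or PC3MM cells plated at 1000 per well, viability was measured by Cell Titer Glo luminescence in fresh medium, read 10 min after reagent addition.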

IC50 (PDK1 kinase) [µM] | EC50 (PC3MM cells) [µM] | EC50 (A2780 cells) [µM] | Compound
< 5 | < 5 | < 5 | CN1CC[C@H](Oc2cccc3cnc(Nc4ccc(S(N)(=O)=O)cc4)nc23)C1 [Compound 723, (S)-4-(8-(1-methylpyrrolidin-3-yloxy)quinazolin-2-ylamino)benzenesulfonamide]
< 5 | < 5 | < 5 | CN1CCC(Oc2cccc3cnc(Nc4ccc(S(N)(=O)=O)cc4)nc23)CC1 [Compound 724, 4-(8-(1-methylpiperidin-4-yloxy)quinazolin-2-ylamino)benzenesulfonamide]
< 5 | < 5 | < 5 | NS(=O)(=O)c1ccc(Nc2ncc3cccc(O[C@@H]4CCNC4)c3n2)cc1 [Compound 726, (R)-4-(8-(pyrrolidin-3-yloxy)quinazolin-2-ylamino)benzenesulfonamide]
< 5 | < 5 | < 5 | CN1CC[C@@H](Oc2cccc3cnc(Nc4ccc(S(N)(=O)=O)cc4)nc23)C1 [Compound 727, (R)-4-(8-(1-methylpyrrolidin-3-yloxy)quinazolin-2-ylamino)benzenesulfonamide]
< 5 | < 5 | 5 to 10 | CC(=O)c1ccc(-c2cccc3cnc(Nc4ccc(S(N)(=O)=O)cc4)nc23)cc1 [Compound 731, 4-(8-(4-acetylphenyl)quinazolin-2-ylamino)benzenesulfonamide]
< 5 | < 5 | < 5 | NS(=O)(=O)c1ccc(Nc2ncc3cccc(-c4ccc(-c5ccn[nH]5)cc4)c3n2)cc1 [Compound 732, 4-(8-(4-(1H-pyrazol-5-yl)phenyl)quinazolin-2-ylamino)benzenesulfonamide]
< 5 | < 5 | < 5 | CN1CCCC(Oc2cccc3cnc(Nc4ccc(S(N)(=O)=O)cc4)nc23)C1 (stereo not drawn) [Compound 733, 4-(8-(1-methylpiperidin-3-yloxy)quinazolin-2-ylamino)benzenesulfonamide]
< 5 | < 5 | < 5 | NC(=O)c1cccc(-c2cccc3cnc(Nc4ccc(S(N)(=O)=O)cc4)nc23)c1 [Compound 734, 3-(2-(4-sulfamoylphenylamino)quinazolin-8-yl)benzamide]
< 5 | < 5 | < 5 | CS(=O)(=O)c1cccc(-c2cccc3cnc(Nc4ccc(S(N)(=O)=O)cc4)nc23)c1 [Compound 735, 4-(8-(3-(methysulfonyl)phenyl)quinazolin-2-ylamino)benzenesulfonamide]
< 5 | < 5 | < 5 | CS(=O)(=O)Nc1cccc(-c2cccc3cnc(Nc4ccc(S(N)(=O)=O)cc4)nc23)c1 [Compound 736, 4-(8-(3-(methylsulfonamido)phenyl)quinazolin-2-ylamino)benzenesulfonamide]
< 5 | < 5 | < 5 | CC(=O)Nc1cccc(-c2cccc3cnc(Nc4ccc(S(N)(=O)=O)cc4)nc23)c1 [Compound 737, N-(3-(2-(4-sulfamoylphenylamino)quinazolin-8-yl)phenyl)acetamide]
< 5 | < 5 | < 5 | NS(=O)(=O)c1ccc(Nc2ncc3cccc(-c4cccc(S(N)(=O)=O)c4)c3n2)cc1 [Compound 738, 3-(2-(4-sulfamoylphenylamino)quinazolin-8-yl)benzenesulfonamide]
< 5 | < 5 | < 5 | NS(=O)(=O)c1ccc(Nc2ncc3cccc(-c4ccc5c(c4)OCO5)c3n2)cc1 [Compound 739, 4-(8-(benzo[d][1,3]dioxol-5-yl)quinazolin-2-ylamino)benzenesulfonamide]
< 5 | < 5 | 5 to 10 | NC(=O)c1ccc(-c2cccc3cnc(Nc4ccc(S(N)(=O)=O)cc4)nc23)cc1 [Compound 740, 4-(2-(4-sulfamoylphenylamino)quinazolin-8-yl)benzamide]
< 5 | < 5 | < 5 | NS(=O)(=O)c1ccc(Nc2ncc3cccc(-c4ccnc(F)c4)c3n2)cc1 [Compound 741, 4-(8-(2-fluoropyridin-4-yl)quinazolin-2-ylamino)benzenesulfonamide]
< 5 | < 5 | 5 to 10 | NS(=O)(=O)c1ccc(Nc2ncc3cccc(-c4cccnc4)c3n2)cc1 [Compound 742, 4-(8-(pyridin-3-yl)quinazolin-2-ylamino)benzenesulfonamide]
< 5 | < 5 | 5 to 10 | NS(=O)(=O)c1ccc(Nc2ncc3cccc(-c4ccncc4)c3n2)cc1 [Compound 743, 4-(8-(pyridin-4-yl)quinazolin-2-ylamino)benzenesufonamide]
< 5 | < 5 | < 5 | COCCNc1cc(-c2cccc3cnc(Nc4ccc(S(N)(=O)=O)cc4)nc23)ccn1 [Compound 745, 4-(8-(2-(2-methoxyethylamino)pyridin-4-yl)quinazolin-2-ylamino)benzenesulfonamide]
< 5 | < 5 | 5 to 10 | CC(=O)NCCNc1cc(-c2cccc3cnc(Nc4ccc(S(N)(=O)=O)cc4)nc23)ccn1 [Compound 746, N-(2-(4-(2-(4-sulfamoylphenylamino)quinazolin-8-yl)pyridin-2-ylamino)ethyl)acetamide]
< 5 | < 5 | < 5 | NS(=O)(=O)c1ccc(Nc2ncc3cccc(-c4ccnc(NCCN5CCCC5)c4)c3n2)cc1 [Compound 747, 4-(8-(2-(2-(pyrroIidin-1-yl)ethylamino)pyridin-4-yl)quinazolin-2-ylamino)benzenesulfonamide]
< 5 | < 5 | < 5 | NS(=O)(=O)c1ccc(Nc2ncc3cccc(-c4cnoc4)c3n2)cc1 [Compound 748, 4-(8-(isoxazol-4-yl)quinazolin-2-ylamino)benzenesulfonamide]
< 5 | < 5 | < 5 | NS(=O)(=O)c1ccc(Nc2ncc3cccc(-c4cn[nH]c4)c3n2)cc1 [Compound 751, 4-(8-(1H-pyrazol-yl)quinazolin-2-ylamino)benzenesulfonamide]
< 5 | < 5 | < 5 | NS(=O)(=O)c1ccc(Nc2ncc3cccc(-c4ccnc(N5CCOCC5)c4)c3n2)cc1 [Compound 752, 4-(8-(2-morpholinopyridin-4-yl)quinazolin-2-ylamino)benzenesulfonamide]
< 5 | < 5 | < 5 | CN1CCN(c2cc(-c3cccc4cnc(Nc5ccc(S(N)(=O)=O)cc5)nc34)ccn2)CC1 [Compound 753, 4-(8-(2-(4-methylpiperazin-1-yl)pyridin-4-yl)quinazolin-2-ylamino)benzenesulfonamide]
< 5 | < 5 | < 5 | NS(=O)(=O)c1ccc(Nc2ncc3cccc(-c4ccnc(N5CCS(=O)(=O)CC5)c4)c3n2)cc1 [Compound 754]
< 5 | < 5 | < 5 | NS(=O)(=O)c1ccc(Nc2ncc3cccc(-c4ccnc(N5CCNC(=O)C5)c4)c3n2)cc1 [Compound 755, 4-(8-(2-(3-oxopiperazin-1-yl)pyridin-4-yl)quinazolin-2-ylamino)benzenesulfonamide]
< 5 | < 5 | 5 to 10 | Nc1cc(-c2cccc3cnc(Nc4ccc(S(N)(=O)=O)cc4)nc23)ccn1 [Compound 756, 4-(8-(2-aminopyridin-4-yl)quinazolin-2-ylamino)benzenesulfonamide]
< 5 | < 5 | < 5 | NS(=O)(=O)c1ccc(Nc2ncc3cccc(-c4ccccc4)c3n2)cc1 [Compound 757, 4-(8-phenylquinazolin-2-ylamino)benzenesulfonamide]
< 5 | < 5 | 5 to 10 | NC(=O)c1ccc(-c2ccc3cnc(Nc4ccc(S(N)(=O)=O)cc4)nc3c2)cc1F [Compound 759, 2-fluoro-4-(2-(4-sulfamoylphenylamino)quinazolin-7-yl)benzamide]
